Values quoted from earlier work as cited in US20170007591A1, “Composition to Mitigate Spikes in Blood Sugar” (Panacea Scientific, Inc., priority 2015, published 2017).

Columns and labels:
[1] = rats; 20 mg piperine dose with 2 g/kg dose of curcumin
μ-opioid receptor = μ-opioid receptor (Homo sapiens, UniProt P35372); settings: acts as non-selective antagonist
δ-opioid receptor = δ-opioid receptor (Homo sapiens, UniProt P41143); settings: acts as non-selective antagonist
κ-opioid receptor = κ-opioid receptor (Homo sapiens, UniProt P41145); settings: acts as non-selective antagonist
κ-opioid receptor, sequence (P41145 whole entry): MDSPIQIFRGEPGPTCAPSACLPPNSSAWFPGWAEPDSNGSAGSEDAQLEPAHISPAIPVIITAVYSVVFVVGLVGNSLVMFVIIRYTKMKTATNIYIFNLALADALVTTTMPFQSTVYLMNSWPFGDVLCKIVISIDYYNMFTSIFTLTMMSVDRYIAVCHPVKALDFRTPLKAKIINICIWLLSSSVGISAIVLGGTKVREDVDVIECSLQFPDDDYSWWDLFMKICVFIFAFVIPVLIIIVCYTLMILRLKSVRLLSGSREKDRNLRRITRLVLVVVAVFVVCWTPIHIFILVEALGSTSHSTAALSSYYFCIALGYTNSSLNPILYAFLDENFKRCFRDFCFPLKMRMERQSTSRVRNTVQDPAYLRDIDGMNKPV

CYP2C9 = CYP2C9 (Homo sapiens, UniProt P11712); settings: in humans
CYP2C9, sequence (P11712 whole entry): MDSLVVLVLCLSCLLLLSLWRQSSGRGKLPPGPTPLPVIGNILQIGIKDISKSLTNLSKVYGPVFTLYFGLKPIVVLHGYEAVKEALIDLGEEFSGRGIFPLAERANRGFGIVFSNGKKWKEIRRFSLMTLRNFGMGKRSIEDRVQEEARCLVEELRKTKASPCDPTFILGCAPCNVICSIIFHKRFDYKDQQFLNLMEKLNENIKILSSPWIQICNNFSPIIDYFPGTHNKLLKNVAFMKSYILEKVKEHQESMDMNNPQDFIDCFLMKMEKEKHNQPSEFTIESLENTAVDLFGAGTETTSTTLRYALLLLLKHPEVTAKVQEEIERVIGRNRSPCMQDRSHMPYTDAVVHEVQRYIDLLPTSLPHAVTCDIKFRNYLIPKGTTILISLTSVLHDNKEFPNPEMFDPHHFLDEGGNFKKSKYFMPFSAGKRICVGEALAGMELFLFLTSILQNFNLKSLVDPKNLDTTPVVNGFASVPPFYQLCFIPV

μ-opioid receptor, sequence (P35372 whole entry): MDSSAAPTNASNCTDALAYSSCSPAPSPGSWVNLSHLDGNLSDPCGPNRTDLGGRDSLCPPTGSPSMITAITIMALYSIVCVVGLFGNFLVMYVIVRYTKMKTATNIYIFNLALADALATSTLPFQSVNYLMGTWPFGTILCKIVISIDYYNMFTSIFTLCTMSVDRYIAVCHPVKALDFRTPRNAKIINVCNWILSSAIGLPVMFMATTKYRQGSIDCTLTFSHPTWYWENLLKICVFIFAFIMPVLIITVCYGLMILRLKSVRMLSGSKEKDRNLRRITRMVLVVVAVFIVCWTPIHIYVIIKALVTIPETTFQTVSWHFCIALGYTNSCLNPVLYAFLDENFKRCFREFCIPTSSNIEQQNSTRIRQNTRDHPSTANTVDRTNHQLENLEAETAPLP
δ-opioid receptor, sequence (P41143 whole entry): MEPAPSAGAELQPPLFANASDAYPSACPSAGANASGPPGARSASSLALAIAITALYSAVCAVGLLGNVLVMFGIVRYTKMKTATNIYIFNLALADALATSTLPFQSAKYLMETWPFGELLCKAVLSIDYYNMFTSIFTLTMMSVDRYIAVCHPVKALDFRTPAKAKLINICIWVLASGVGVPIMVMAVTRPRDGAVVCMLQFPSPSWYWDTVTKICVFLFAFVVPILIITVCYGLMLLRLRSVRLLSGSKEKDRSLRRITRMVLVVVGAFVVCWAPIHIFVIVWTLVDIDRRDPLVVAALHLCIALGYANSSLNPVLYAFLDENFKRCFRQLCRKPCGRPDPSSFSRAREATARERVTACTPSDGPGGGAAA

SMILES | increase of the bioavailability of curcumin [1] [%] | affinity for μ-opioid receptor (μ-opioid receptor) | affinity for δ-opioid receptor (δ-opioid receptor) | affinity for κ-opioid receptor (κ-opioid receptor) | inhibition of CYP2C9 (CYP2C9)
O=C(/C=C/C=C/c1ccc2c(c1)OCO2)N1CCCCC1 [piperine] | 154 | – | – | – | –
O=c1cc(-c2ccc(O)cc2)oc2cc(O)cc(O)c12 [apigenin, 4′,5,7-trihydroxyflavone] | – | nonomolar affinity | nonomolar affinity | nonomolar affinity | inhibits the enzyme CYP2C9
